Here are results for 35 molecules from ChEMBL document CHEMBL1201862, “PubChem BioAssay data set” (2004).

Active and inactive are the calls of the source.

The target of test [1] is T1, Cytochrome P450 1A2 (Homo sapiens, UniProt P05177).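 Further: PubChem cytochrome P450 panel assay, CYP1A2 panel member.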
T1 sequence (P05177 whole entry): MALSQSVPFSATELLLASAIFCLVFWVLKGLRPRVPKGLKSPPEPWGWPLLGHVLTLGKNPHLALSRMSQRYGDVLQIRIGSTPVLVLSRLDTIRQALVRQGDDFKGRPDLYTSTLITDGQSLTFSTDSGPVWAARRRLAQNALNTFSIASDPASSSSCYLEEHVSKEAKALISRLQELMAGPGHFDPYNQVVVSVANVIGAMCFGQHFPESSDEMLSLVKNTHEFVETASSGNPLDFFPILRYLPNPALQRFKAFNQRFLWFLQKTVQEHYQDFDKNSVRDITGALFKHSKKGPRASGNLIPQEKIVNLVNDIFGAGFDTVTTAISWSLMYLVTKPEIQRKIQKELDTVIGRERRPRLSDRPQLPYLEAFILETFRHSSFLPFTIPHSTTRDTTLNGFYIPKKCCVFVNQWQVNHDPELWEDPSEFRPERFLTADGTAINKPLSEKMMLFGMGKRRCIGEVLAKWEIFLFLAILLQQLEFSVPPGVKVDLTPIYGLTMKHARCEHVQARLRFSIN

For test [2], the target named is T2, Heat shock factor protein 1 (Mus musculus, UniProt P38532).
T2 sequence (P38532 whole entry): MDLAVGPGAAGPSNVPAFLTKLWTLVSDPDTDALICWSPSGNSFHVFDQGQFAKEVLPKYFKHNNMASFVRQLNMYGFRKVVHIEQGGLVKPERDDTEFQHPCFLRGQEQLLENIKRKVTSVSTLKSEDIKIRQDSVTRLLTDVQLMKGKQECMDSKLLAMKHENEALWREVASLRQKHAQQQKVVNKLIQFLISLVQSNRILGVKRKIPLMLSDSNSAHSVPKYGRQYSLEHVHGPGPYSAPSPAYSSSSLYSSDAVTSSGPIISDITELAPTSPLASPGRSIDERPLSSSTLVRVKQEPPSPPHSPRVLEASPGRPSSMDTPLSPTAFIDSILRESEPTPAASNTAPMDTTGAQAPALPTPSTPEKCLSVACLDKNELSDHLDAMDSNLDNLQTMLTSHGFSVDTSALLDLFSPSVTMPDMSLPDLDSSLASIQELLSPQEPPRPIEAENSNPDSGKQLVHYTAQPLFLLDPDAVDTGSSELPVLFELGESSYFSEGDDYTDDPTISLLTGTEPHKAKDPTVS
The experiment in a line: inhibition of MG132-induced HSE-luciferase signal, confirmation, cell-based, NIH3T3, luminescence, dose retest (AID 2382).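 Further: NIH3T3 fibroblasts with HSF1-driven luciferase reporter stressed by proteasome inhibitor MG132; luminescence from HSF1-driven luciferase expression after 8 hours of MG132 stress.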 In kind it is functional.

Test [3] deals with T3, Corticotropin-releasing factor receptor 2/Corticotropin-releasing factor-binding protein (Homo sapiens, UniProt P24387+Q13324).
T3 sequence (Q13324 whole entry): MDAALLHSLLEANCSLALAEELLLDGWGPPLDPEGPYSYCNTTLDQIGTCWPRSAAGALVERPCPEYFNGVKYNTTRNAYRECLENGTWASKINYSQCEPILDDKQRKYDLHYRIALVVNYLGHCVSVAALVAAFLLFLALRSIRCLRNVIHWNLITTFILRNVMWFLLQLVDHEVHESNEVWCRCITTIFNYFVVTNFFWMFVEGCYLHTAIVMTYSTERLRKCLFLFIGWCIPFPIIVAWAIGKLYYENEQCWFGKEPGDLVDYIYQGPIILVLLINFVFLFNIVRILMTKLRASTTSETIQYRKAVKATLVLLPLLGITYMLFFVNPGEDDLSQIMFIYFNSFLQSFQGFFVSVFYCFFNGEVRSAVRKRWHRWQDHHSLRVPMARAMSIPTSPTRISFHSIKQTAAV
T3 sequence (P24387 whole entry): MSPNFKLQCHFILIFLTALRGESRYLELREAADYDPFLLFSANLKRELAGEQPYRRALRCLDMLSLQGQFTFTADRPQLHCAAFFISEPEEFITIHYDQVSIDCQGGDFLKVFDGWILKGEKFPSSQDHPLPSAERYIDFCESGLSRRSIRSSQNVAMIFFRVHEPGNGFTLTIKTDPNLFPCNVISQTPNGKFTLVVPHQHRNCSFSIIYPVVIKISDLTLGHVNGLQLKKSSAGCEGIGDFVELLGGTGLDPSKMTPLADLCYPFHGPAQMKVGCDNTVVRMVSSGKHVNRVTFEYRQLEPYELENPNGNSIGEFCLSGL
Nature of the test: Dose Response confirmation of uHTS hits for small molecule antagonists of the CRF-binding protein and CRF-R2 receptor complex. In kind it is functional. Particulars: read-out: IC50_Mean.

Test [4] has as its target T3, Corticotropin-releasing factor receptor 2/Corticotropin-releasing factor-binding protein. Nature of the test: activators of CRF receptor 2 with binding protein – uHTS hits, confirmation (AID 602473). The conditions noted are these: read-out: EC50_Mean. In kind it is functional.
Test [5] concerns Streptococcus sp. 'group A'. Nature of the test: growth inhibition of control SK(-) GAS strain, dose response, counter-screen for streptokinase expression inhibitor project, luminescence, kanamycin, BacTiterGlo, confirmation (AID 1900). Format: functional, organism-based.
For test [6], the target named is T4, Streptokinase A (Streptococcus pyogenes serotype M1, UniProt P10520).
T4 sequence (P10520 whole entry): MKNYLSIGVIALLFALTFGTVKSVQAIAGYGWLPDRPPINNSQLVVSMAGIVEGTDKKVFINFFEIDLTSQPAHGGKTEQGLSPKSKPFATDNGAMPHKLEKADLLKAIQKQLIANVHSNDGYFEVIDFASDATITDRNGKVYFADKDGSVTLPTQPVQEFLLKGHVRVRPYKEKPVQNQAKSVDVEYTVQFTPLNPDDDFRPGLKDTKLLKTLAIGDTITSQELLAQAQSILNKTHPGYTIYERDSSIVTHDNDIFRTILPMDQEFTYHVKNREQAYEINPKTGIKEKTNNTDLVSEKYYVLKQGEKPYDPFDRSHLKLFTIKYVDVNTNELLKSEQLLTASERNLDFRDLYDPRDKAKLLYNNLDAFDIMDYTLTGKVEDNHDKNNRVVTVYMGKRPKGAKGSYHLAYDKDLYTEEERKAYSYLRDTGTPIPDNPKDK
Nature of the test: S. pyogenes streptokinase expression inhibitors, potency, dose response, plasminogen activation absorbance, OD405 (AID 1914).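 Further: secreted streptokinase activity via plasminogen activation per viability signal from cell pellet.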 Format: functional, Streptococcus pyogenes M1 GAS.

In test [7] the test system is Streptococcus. Nature of the test: Group A Streptococcus viability loss, dose response, counter-screen for streptokinase expression inhibitor project, luminescence, BacTiterGlo (AID 1915).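 Further: potency for reduction of bacterial viability or growth.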 Format: functional, organism-based. In general terms: Counterscreens check selectivity or assay interference.
Test [8] concerns the target Cytochrome P450 2D6 (Homo sapiens, UniProt P10635).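 Further: CYP2D6 member of a cytochrome P450 panel assay.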
The target of test [9] is Cytochrome P450 2C19 (Homo sapiens, UniProt P33261). Nature of the test: Cytochrome panel assay with activity outcomes. Panel member name: p450-cyp2c19 Compounds with AC50 equal or less than 10 uM are considered active. In kind it is functional. The conditions noted are these: read-out: AC50.
Sequence of Cytochrome P450 2C19 (P33261 whole entry): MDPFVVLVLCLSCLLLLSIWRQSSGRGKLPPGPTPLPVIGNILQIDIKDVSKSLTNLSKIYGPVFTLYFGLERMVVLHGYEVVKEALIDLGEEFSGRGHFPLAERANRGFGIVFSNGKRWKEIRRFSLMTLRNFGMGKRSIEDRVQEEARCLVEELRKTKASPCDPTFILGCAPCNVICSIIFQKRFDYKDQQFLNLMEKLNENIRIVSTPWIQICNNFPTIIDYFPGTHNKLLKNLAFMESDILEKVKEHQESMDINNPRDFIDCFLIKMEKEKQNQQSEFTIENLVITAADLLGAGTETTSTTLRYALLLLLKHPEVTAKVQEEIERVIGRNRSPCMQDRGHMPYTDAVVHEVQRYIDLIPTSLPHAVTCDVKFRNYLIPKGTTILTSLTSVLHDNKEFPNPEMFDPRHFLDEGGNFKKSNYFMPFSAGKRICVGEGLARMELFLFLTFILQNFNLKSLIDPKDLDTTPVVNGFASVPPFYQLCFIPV
The target of test [10] is Cytochrome P450 2C9 (Homo sapiens, UniProt P11712).
Sequence of Cytochrome P450 2C9 (P11712 whole entry): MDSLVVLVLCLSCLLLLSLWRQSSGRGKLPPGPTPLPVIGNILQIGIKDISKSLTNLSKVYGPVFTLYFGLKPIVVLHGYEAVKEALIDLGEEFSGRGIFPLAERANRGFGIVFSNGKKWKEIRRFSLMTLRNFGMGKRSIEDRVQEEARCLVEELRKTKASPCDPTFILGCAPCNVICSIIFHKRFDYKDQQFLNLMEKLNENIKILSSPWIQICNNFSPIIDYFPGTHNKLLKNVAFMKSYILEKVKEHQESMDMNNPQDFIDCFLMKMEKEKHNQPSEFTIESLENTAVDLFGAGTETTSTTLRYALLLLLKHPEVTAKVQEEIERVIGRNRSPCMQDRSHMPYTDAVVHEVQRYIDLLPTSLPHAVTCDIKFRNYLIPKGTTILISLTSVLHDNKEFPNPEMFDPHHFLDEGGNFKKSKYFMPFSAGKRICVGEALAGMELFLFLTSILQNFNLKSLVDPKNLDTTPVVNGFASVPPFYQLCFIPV
For test [11], the target named is Cytochrome P450 3A4 (Homo sapiens, UniProt P08684).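 Further: CYP3A4 tested as one member of a cytochrome P450 panel screen.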
Sequence of Cytochrome P450 3A4 (P08684 whole entry): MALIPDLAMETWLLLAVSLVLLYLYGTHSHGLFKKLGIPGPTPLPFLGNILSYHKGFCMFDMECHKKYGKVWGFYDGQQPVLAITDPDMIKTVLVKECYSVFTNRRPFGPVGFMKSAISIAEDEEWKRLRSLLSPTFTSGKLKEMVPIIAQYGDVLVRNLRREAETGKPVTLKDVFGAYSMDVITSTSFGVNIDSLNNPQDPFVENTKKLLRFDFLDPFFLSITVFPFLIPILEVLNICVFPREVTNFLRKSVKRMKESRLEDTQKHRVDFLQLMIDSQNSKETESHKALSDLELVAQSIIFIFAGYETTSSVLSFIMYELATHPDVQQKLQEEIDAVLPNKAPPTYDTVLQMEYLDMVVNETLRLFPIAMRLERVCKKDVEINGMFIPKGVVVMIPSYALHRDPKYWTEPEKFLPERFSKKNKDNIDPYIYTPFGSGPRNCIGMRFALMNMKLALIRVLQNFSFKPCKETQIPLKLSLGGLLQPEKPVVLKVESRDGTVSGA

Sequence of Cytochrome P450 2D6 (P10635 whole entry): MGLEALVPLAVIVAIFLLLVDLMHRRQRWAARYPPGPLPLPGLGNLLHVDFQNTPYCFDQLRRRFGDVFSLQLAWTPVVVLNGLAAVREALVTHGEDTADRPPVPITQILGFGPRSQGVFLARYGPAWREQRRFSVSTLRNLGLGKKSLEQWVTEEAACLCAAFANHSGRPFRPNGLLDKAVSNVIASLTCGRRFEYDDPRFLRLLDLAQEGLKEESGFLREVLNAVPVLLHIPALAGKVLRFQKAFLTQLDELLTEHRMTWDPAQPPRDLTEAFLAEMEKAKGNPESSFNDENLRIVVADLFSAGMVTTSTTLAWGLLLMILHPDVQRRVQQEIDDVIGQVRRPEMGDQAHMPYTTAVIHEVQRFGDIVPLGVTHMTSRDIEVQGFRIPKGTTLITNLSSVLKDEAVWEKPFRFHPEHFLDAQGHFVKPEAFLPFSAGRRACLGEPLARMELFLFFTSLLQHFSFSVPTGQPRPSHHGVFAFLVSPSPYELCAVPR

The term AC50 denotes the concentration giving half of the maximal activity seen. Consider `CCCCCC(=O)O[C@H](CC(=O)O)C[N+](C)(C)C`, for which the AC50 in test [1] is 31.6 µM (inconclusive).

Consider `Cc1ccc(-n2c(S)nnc2-c2cc(C)n(C)n2)cc1`, for which the AC50 in [1] is 28.2 µM (inconclusive).

For `COc1ccc(OC)c(NC(S)=NCc2cccnc2)c1`, the EC50 in [2] is on record as > 195 µM (not active).

As to `Cn1cc(CN2CCCC(C(=O)Nc3cccc(-c4cc5ccccc5[nH]4)c3)C2)cn1` (configuration not stated), in [3], the IC50 was > 47.1 µM (inactive). In addition, the EC50 in [4] was 42.9 µM (active).

Take `COc1ccc(C2=NCCn3nc4cc([N+](=O)[O-])ccc4c32)cc1`: the EC50 in [2] is reported as > 195 µM (not active).

`COCC1CCN(C(=O)CCc2nnc(C3(c4ccc(Cl)cc4)CCC3)o2)C1` (configuration not stated): the EC50 in test [5], in test [6] and in test [7] was > 150 µM (not active) throughout.

For the molecule `COc1ccc(S(=O)(=O)Nc2ccccc2C(=O)N2CCOCC2)cc1Cl`, in test [2], the EC50 was 46 µM (active).

As for `O=C(c1cccc(F)c1)N1CCC[C@@]2(CCN(Cc3nccs3)C2)C1`, the AC50 in [8] was 20 µM (inconclusive); in test [1], 12.6 µM (inconclusive).

In the case of `O=C(Nc1ccccc1)c1ccccc1OCc1cccc([N+](=O)[O-])c1`, in test [3], the IC50 was > 47.1 µM (inactive). In [4], the EC50 was > 53 µM (inactive).

In the case of `O=C(O)c1cc(-c2ccc3cc4c(cc3c2)OCO4)nc2ccccc12`, in test [1], the AC50 is 3.16 µM (inconclusive).

In the case of `O=C(O)c1ccc(NCc2nc3cc4ccccc4cc3[nH]2)cc1`, in [1], the AC50 is 5.01 µM (inconclusive).

Turning to `Cc1cccc(N2C(=O)NC(=O)/C(=C\c3ccc(N4CCOCC4)cc3)C2=O)c1`, the IC50 in test [3] is > 47.1 µM (inactive). Further, the EC50 in test [4] is > 53 µM (inactive).

Consider `Cc1ccc(NC(=O)C2CCCN2S(=O)(=O)c2ccc3c(c2)n(C)c(=O)c(=O)n3C)cc1C` (configuration not stated), for which the EC50 in [2] is > 195 µM (not active).

For the molecule `Cc1cc(C)c(NC(=O)CSc2nnc(Cc3cccn3C)n2-c2ccc(F)cc2)c(C)c1`, the AC50 was 28.2 µM (inconclusive) in test [9] and 2.51 µM (inconclusive) in test [1].

`CCCOc1ccc(N2CC(C(=O)NC(C)C)CC2=O)cc1` (configuration not stated): the EC50 in [2] is reported as > 195 µM (not active).

For the molecule `COCCn1c(=O)c(-c2cc(F)cc(F)c2)nc2cnc(N3CCN(C)CC3)nc21`, the results for the AC50 in [1] and in test [10] were 15.8 µM (inconclusive) and 39.8 µM (inconclusive), respectively.

As for `Fc1ccccc1CNc1ccc(Cl)c(Cl)c1`, the results for the EC50 in test [5], in [6] and in test [7] were 11.4 µM (active), > 150 µM (not active) and 63.8 µM (active), respectively.

As to `COc1ccc(Cc2nnc(NC(=O)Nc3ccc(C)cc3)s2)cc1OC`, the IC50 in test [3] was > 47.1 µM (inactive). The EC50 in test [4] is > 53 µM (inactive).

On to `Cc1cc(C(=O)Nc2ccc3c(c2)OCCO3)nn1C(C)(C)C`, for which the IC50 in test [3] is > 47.1 µM (inactive). Further, in [4], the EC50 was > 53 µM (inactive).

Take `O=C(O)/C=C\C(=O)Nc1ccc2c(c1)C(=O)c1cc(F)ccc1-2`: the AC50 in test [1] was 0.794 µM (inconclusive).

As to `COC(=O)c1sccc1-c1ccc(C(=O)Nc2cccnc2)o1`, in test [1], the AC50 is 0.282 µM (inconclusive).

Turning to `Cc1ccccc1OCC(=O)NC(=S)Nc1ccc(N2CCOCC2)c(Cl)c1`, the AC50 is 12.6 µM (inconclusive) in test [1], 14.1 µM (inconclusive) in test [11] and 15.8 µM (inconclusive) in test [10].

Consider `Cc1ccc(NC(=O)CSCc2cc(=O)n3cc(C)sc3n2)c(C)c1`, for which the EC50 in test [2] was > 195 µM (not active).

In the case of `Cn1cccc1C(=O)N1CCC[C@@]2(CCN(Cc3ccccc3)C2)C1`, the AC50 in test [1] is 10 µM (inconclusive); in test [11] it was 5.01 µM (inconclusive).

Consider `CC(C)NC(=S)N(CCc1ccncc1)C(C)C`, for which the IC50 in test [3] is > 47.1 µM (inactive). Further, the EC50 in test [4] is > 53 µM (inactive).

Take `Cc1cc(C)c(NC(=O)C(C)Sc2nnc(-c3ccco3)n2-c2ccccc2)c(C)c1` (configuration not stated): the AC50 in test [1] is 22.4 µM (inconclusive).

On to `COc1ccc(NC(=O)N2CCC3(CC2)CCN(C(=O)c2csnn2)CC3)cc1`, for which the AC50 in test [1] was 6.31 µM (inconclusive); in [11], 12.6 µM (inconclusive).

On to `COc1ccc(S(=O)(=O)Nc2c(C)n(C)n(-c3ccccc3)c2=O)cc1C(=O)O`, for which the IC50 in test [3] was > 47.1 µM (inactive). Also, in test [4], the EC50 is > 53 µM (inactive).

Turning to `O=C(NCc1cn2ccccc2n1)C1CCC(=O)N(Cc2ccccc2F)C1` (configuration not stated), the IC50 in test [3] is > 47.1 µM (inactive). In addition, the EC50 in test [4] was > 53 µM (inactive).

With `CC12CCC(C/C1=N\OC(=O)c1c(F)cccc1F)C2(C)C` (configuration not stated), in test [3], the IC50 is > 47.1 µM (inactive). The EC50 in test [4] was > 53 µM (inactive).

As for `CCCCN(C(=O)CSc1nnc[nH]1)c1c(N)n(Cc2ccccc2)c(=O)[nH]c1=O`, in test [3], the IC50 was > 47.1 µM (inactive). Moreover, the EC50 in test [4] was > 53 µM (inactive).

`CC1(C2CC2)NC(=O)N(CC(=O)Nc2ccccc2F)C1=O` (configuration not stated): in test [3], the IC50 is > 47.1 µM (inactive). Further, in test [4], the EC50 is > 53 µM (inactive).

In the case of `C/C(=N/NC(=O)CNC(=O)c1cccnc1)c1cccc([N+](=O)[O-])c1`, the EC50 in test [5], in test [6] and in test [7] was > 150 µM (not active) in each case.

`CC(C)(C)N/N=C1\CC(c2ccccc2)Oc2ccccc21` (configuration not stated): the EC50 in [5] was 6.48 µM (active); in test [6], 7.08 µM (active); in test [7], > 150 µM (not active).

With `COc1ccc(COC(=O)N/N=C(\C)CC(=O)Nc2c(C)cc(C)cc2C)cc1`, the AC50 in [9] was 25.1 µM (inconclusive); in test [1] it was 22.4 µM (inconclusive).
